Data set [1] addresses JAK2 (Homo sapiens (Human), UniProt O60674). As to the kind of experiment: Biochemical JAK kinase assay (LanthaScreen), JAK2. On the procedure:
(§1) Recombinant GST-tagged JAK enzymes and a GFP-tagged STAT1 peptide substrate were obtained from Life Technologies. Serially diluted compounds were pre-incubated with each of the four JAK enzymes and the substrate in white 384-well microplates (Corning) at ambient temperature for 1 h. ATP was subsequently added to initiate the kinase reactions in 10 μL total volume, with 1% DMSO. […] Kinase reactions were allowed to proceed for 1 hour at ambient temperature before a 10 μL preparation of EDTA (10 mM final concentration) and Tb-anti-pSTAT1 ([…]) antibody (Life Technologies, 2 nM final concentration) in TR-FRET dilution buffer (Life Technologies) was added. The plates were allowed to incubate at ambient temperature for 1 h before being read on the EnVision reader (Perkin Elmer). Emission ratio signals (520 nm/495 nm) were recorded and utilized to calculate the percent inhibition values based on DMSO and background controls. For dose-response analysis, percent inhibition data were plotted vs. compound concentrations, and IC50 values were determined from a 4-parameter robust fit model with the Prism software (GraphPad Software). Results were expressed as pIC50 (negative logarithm of IC50) and subsequently converted to pKi (negative logarithm of dissociation constant, Ki) using the Cheng-Prusoff equation. Test compounds having a lower Ki value or higher pKi value in the four JAK assays show greater inhibition of JAK activity.
A general note: Time-resolved FRET reads energy transfer from a long-lived donor to a nearby acceptor.

Data set [2] concerns the target JAK3 (Homo sapiens (Human), UniProt P52333). As to the kind of experiment: Biochemical JAK kinase assay (LanthaScreen), JAK3. On the procedure:
as §1, with “equation.” for “equation. Test compounds having a lower Ki value or higher pKi value in the four JAK assays show greater inhibition of JAK activity.”

In data set [3] the target is Tyk2 (Homo sapiens (Human), UniProt P29597). As to the kind of experiment: Biochemical JAK kinase assay (LanthaScreen), Tyk2. On the procedure: as §1, with “equation.” for “equation. Test compounds having a lower Ki value or higher pKi value in the four JAK assays show greater inhibition of JAK activity.”
For data set [4], the system named is IL-2 stimulated pSTAT5 in Tall-1 T cells. As to the kind of experiment: Inhibition of IL-2 stimulated pSTAT5 in Tall-1 T cells. Format: cell-based. The note with it: IL-2 stimulated pSTAT5, Tall-1 human T cell line; read-out: Tall-1 pIC50 (converted). How it is done:
The potency of test compounds for inhibition of interleukin-2 (IL-2) stimulated STAT5 phosphorylation was measured in the Tall-1 human T cell line (DSMZ) using AlphaLisa. Because IL-2 signals through JAK1/3, this assay provides a measure of JAK1/3 cellular potency.
Phosphorylated STAT5 was measured via the AlphaLISA SureFire Ultra pSTAT5 (Tyr694/699) kit (PerkinElmer).
Human T cells from the Tall-1 cell line were cultured in a 37° C., 5% CO2 humidified incubator in RPMI (Life Technologies) supplemented with 15% Heat Inactivated Fetal Bovine Serum (FBS, Life Technologies), 2 mM Glutamax (Life Technologies), 25 mM HEPES (Life Technologies) and 1× Pen/Strep (Life Technologies). Compounds were serially diluted in DMSO and dispensed acoustically to empty wells. Assay media (phenol red-free DMEM (Life Technologies) supplemented with 10% FBS (ATCC)) was dispensed (4 μL/well) and plates shaken at 900 rpm for 10 mins. Cells were seeded at 45,000 cells/well in assay media (4 μL/well), and incubated at 37° C., 5% CO2 for 1 hour, followed by the addition of IL-2 (R&D Systems; final concentration 300 ng/mL) in pre-warmed assay media (4 μL) for 30 minutes. After cytokine stimulation, cells were lysed with 6 ul of 3× AlphaLisa Lysis Buffer (PerkinElmer) containing 1× PhosStop and Complete tablets (Roche). The lysate was shaken at 900 rpm for 10 minutes at room temperature (RT). Phosphorylated STAT5 was measured via the pSTAT5 AlphaLisa kit (PerkinElmer). Freshly prepared acceptor bead mixture was dispensed onto lysate (5 μL) under green filtered <100 lux light. Plates were shaken at 900 rpm for 2 mins, briefly spun down, and incubated for 2 hrs at RT in the dark. Donor beads were dispensed (5 μL) under green filtered <100 lux light. Plates were shaken at 900 rpm for 2 minutes, briefly spun down, and incubated overnight at RT in the dark. Luminescence was measured with excitation at 689 nm and emission at 570 nm using an EnVision plate reader (PerkinElmer) under green filtered <100 lux light.
To determine the inhibitory potency of test compounds in response to IL-2, the average emission intensity of beads bound to pSTAT5 was measured in a human T cell line. IC50 values were determined from analysis of the inhibition curves of signal intensity versus compound concentration. Data are expressed as pIC50 (negative decadic logarithm IC50) values (mean±standard deviation).

A short description of data set [5]: Lung S9 metabolism. The note with it: for Compound Remaining at 60 min (%) / microsomal CLint at 1 µM: human lung S9, 1 μM compound, 1 mg/mL S9 protein; for Sulfate Appearance: human lung S9, qualitative O-sulfate metabolite peak; for microsomal CLint at 1 µM: human lung S9 fraction, pH 7.4, NADPH and PAPS, read-out: Clearance. It counts as in vitro ADME, human. How it is done:
The time 0, 15, 30, and 60 minute samples were analyzed for parent compound by high resolution LC-MS/MS. Lung S9 fractions from human (lot 1410245) were purchased from XenoTech LLC (Lenexa, Kans.). NADPH (Sigma Aldrich, N1630) and 3-phosphoadenosine 5-phosphosulfate (PAPS) (Sigma Aldrich, A1651) were purchased from Sigma Aldrich (St. Louis, Mo.). Acetonitrile and water were obtained from VWR (Radnor, Pa.) and were of HPLC grade or better. Raloxifene and formic acid was purchased from Sigma Aldrich (St. Louis, Mo.). Lung S9 incubations were performed in a water bath at 37° C. in a 96-well polypropylene plate. […] Louis, Mo.), 3 mM magnesium chloride (Sigma Aldrich, M1028) and in the presence of 100 μM PAPS (Sigma-Aldrich, St. […] Incubation volumes consisted of 400 μL and time points were taken at 0, 15, 30, and 60 minutes by the removal of a 70 μL aliquot and dilution into 140 μL acetonitrile (0% formic acid). All samples were centrifuged at 2250 g for 10 minutes at 5° C. Supernatant […] was taken from the centrifuged samples and diluted into 100 μL HPLC water containing internal standard. The samples were run on a Dionex Ultimate 3000 Auto sampler and analyzed using a Thermo Q-Exactive High Resolution Mass Spectrometer (Thermo, Waltham, Mass.) in Full Scan mode in conjunction with an Atlantis T3 column 3 μM-2.1×50 mm (Waters Inc., 186003717). Mobile Phase A consisted of Water+0.2% formic acid and Mobile Phase B consisted of acetonitrile +0.2% formic acid. Peak integration was accomplished using Gubbs GMSU software (Gubbs Inc., Alpharetta, Ga.). For each sample, peak area ratios were calculated by dividing the analyte peak area by the internal standard peak area. For each incubation, the peak area ratios of the analytes in each t0 was set to 100%, and the peak areas ratios from the 60 minute samples were converted to percentages remaining relative to the corresponding t0. Determination of sulfate metabolite formation was made qualitatively by observation of early-eluting peak in the parent ion channel which, based on historical internal data, corresponded to the O-sulfate metabolite of each parent compound.

Data set [6] concerns the target JAK1 (Homo sapiens (Human), UniProt P23458). As to the kind of experiment: Biochemical JAK kinase assay (LanthaScreen), JAK1. On the procedure:
as §1, with “equation.” for “equation. Test compounds having a lower Ki value or higher pKi value in the four JAK assays show greater inhibition of JAK activity.”

JAK2, sequence (O60674 whole entry): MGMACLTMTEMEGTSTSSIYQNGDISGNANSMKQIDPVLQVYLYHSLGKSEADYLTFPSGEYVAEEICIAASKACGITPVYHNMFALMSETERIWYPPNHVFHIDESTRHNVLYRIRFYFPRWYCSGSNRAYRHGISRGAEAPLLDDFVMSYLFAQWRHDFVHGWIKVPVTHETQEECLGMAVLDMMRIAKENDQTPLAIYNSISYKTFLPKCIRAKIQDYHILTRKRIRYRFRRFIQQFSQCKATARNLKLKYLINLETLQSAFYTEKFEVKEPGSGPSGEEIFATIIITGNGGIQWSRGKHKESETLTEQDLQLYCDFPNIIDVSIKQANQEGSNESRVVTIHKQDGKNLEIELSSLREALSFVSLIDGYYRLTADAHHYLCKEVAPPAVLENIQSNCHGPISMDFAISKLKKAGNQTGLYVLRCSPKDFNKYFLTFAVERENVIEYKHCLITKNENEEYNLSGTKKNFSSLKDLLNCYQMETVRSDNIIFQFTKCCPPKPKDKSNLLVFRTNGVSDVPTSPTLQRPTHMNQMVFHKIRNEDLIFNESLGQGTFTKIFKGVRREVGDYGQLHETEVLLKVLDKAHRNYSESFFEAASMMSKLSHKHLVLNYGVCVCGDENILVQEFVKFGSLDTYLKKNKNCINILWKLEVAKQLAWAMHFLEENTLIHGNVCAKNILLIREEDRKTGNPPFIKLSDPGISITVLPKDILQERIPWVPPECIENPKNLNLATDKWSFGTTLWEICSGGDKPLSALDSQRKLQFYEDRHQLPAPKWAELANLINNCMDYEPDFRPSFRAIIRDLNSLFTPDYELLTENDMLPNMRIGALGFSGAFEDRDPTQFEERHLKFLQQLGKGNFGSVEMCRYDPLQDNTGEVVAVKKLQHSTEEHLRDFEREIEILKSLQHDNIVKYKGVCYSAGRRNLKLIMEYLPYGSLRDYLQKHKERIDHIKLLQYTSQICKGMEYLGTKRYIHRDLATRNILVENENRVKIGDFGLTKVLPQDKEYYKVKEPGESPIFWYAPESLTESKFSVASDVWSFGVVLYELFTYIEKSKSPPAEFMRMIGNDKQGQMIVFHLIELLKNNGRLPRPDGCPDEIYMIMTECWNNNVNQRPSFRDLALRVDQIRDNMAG
Tyk2, sequence (P29597 whole entry): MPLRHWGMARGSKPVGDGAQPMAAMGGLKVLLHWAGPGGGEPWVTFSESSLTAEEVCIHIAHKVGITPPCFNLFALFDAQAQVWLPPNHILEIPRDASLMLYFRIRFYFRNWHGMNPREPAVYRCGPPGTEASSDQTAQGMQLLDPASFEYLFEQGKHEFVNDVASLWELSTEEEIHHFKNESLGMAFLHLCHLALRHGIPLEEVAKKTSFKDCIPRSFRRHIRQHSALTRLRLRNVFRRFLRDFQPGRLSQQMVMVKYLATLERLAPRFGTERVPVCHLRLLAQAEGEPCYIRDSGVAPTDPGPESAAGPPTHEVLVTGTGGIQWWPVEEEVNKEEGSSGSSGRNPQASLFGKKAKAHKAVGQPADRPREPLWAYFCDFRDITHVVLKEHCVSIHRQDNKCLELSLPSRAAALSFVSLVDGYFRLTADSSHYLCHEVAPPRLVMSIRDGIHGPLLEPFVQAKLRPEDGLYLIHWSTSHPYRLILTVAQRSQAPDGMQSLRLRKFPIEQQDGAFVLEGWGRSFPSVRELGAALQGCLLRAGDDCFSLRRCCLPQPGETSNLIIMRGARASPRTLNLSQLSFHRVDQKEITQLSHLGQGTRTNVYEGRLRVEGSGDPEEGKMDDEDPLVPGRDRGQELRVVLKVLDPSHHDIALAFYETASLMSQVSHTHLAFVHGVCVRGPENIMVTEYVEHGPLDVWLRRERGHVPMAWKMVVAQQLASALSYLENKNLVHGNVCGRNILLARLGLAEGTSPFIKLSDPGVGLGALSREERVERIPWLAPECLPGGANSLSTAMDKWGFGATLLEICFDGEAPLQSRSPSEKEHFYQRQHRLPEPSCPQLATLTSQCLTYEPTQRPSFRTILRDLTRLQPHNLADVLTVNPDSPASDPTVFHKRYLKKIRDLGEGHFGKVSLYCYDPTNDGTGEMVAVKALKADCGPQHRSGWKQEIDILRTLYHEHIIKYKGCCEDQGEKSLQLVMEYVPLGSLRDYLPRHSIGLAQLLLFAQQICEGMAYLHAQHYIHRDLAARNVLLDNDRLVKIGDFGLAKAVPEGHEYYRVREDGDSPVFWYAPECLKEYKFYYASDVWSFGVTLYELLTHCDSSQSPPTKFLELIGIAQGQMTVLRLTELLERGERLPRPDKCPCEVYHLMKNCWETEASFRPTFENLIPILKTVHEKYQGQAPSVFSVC
JAK3, sequence (P52333 whole entry): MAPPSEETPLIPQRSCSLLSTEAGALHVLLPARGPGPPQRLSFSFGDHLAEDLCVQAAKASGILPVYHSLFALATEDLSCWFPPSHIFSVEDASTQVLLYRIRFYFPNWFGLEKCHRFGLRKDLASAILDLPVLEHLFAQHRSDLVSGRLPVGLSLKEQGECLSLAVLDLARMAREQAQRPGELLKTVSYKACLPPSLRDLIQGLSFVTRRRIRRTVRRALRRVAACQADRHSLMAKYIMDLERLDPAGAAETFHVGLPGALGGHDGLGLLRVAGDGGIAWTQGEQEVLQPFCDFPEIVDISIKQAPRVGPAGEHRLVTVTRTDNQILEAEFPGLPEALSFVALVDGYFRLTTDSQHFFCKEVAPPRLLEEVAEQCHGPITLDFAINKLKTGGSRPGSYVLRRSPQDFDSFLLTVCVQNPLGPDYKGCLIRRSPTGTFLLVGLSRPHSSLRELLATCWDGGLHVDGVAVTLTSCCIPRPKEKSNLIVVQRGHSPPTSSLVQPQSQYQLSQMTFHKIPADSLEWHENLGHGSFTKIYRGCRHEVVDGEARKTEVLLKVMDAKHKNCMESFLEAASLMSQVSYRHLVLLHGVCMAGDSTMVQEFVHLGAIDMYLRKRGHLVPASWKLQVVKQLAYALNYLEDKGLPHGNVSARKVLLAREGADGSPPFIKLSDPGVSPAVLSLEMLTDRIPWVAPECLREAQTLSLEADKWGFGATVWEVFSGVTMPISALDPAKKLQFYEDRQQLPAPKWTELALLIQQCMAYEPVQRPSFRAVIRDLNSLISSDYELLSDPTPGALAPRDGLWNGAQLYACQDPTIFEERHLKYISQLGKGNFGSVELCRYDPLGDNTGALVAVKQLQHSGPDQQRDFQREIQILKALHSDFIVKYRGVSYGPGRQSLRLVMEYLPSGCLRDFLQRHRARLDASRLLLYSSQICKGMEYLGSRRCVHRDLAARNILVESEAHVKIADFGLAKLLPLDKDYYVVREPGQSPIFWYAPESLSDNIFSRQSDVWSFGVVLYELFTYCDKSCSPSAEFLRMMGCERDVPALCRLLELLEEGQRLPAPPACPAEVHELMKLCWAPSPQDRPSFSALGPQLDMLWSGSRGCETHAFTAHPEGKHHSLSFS
JAK1, sequence (P23458 whole entry): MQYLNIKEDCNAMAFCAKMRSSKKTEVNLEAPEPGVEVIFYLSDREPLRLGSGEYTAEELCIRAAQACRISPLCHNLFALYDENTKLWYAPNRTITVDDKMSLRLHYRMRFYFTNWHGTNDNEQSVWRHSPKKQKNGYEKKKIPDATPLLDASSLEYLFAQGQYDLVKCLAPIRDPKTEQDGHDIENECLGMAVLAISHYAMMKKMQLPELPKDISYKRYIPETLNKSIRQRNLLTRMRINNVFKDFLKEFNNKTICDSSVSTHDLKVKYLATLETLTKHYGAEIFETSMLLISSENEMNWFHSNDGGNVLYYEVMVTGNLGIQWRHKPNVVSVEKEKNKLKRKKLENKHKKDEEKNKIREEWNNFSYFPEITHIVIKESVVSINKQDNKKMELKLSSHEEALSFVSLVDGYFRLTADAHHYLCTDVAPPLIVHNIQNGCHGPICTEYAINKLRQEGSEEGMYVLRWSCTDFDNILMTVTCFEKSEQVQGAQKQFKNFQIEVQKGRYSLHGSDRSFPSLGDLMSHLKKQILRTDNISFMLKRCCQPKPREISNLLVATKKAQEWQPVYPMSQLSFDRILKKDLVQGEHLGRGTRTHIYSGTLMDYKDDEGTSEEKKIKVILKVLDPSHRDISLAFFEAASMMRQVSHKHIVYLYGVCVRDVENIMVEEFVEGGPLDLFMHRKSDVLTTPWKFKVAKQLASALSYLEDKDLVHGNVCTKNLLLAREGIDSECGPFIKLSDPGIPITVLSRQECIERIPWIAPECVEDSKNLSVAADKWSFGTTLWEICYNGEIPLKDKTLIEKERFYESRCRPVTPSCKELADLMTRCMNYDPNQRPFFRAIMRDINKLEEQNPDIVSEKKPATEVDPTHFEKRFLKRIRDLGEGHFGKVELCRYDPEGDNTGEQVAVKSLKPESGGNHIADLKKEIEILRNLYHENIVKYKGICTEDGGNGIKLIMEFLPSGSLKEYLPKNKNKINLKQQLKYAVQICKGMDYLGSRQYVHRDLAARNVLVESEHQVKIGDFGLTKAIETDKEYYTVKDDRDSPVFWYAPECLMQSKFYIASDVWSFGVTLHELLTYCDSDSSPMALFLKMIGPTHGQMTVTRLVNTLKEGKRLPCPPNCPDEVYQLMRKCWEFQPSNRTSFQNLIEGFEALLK

As for `CCc1cc(O)c(F)cc1-c1ccc2c(-c3nc4c([nH]3)CN(CC)[C@H](C(=O)N3CC(N(C)C)C3)C4)n[nH]c2c1` [Compound C-2, (S)-(3-(dimethylamino)azetidin-1-yl)(5-ethyl-2-(6-(2-ethyl-5-fluoro-4-hydroxyphenyl)-1H-indazol-3-yl)-4,5,6,7-tetrahydro-3H-imidazo[4,5-c]pyridin-6-yl)methanone], the “JAK2 pKi” value in data set [1] worked out at 10.9. In data set [2], the “JAK3 pKi” value was 9.5. Also, in data set [3], the “Tyk2 pKi” value was determined as 9.4. Further, in data set [4], the IC50 was 2 nM. For the same compound, in data set [5], the “Compound Remaining at 60 min (%)” value is 6%, the “Sulfate Appearance” value was “Yes” and the microsomal CLint at 1 µM came to 46.7 µL/min/mg.

Regarding `CCc1cc(O)c(F)cc1-c1ccc2c(-c3nc4c([nH]3)CN(C(C)C)[C@H](C(=O)N3CC(C)(N(C)C)C3)C4)n[nH]c2c1` [Compound C-4, (S)-(3-(dimethylamino)-3-methylazetidin-1-yl)(2-(6-(2-ethyl-5-fluoro-4-hydroxyphenyl)-1H-indazol-3-yl)-5-isopropyl-4,5,6,7-tetrahydro-3H-imidazo[4,5-c]pyridin-6-yl)methanone], the Ki in data set [6] (read-out: JAK1 pKi (converted)) was 0.0794 nM. Besides, the Ki in data set [1] (read-out: JAK2 pKi (converted)) was 0.0126 nM. Also, the IC50 in data set [4] is 2.51 nM. Further, in data set [5], the “Compound Remaining at 60 min (%)” value came out at 4%, the “Sulfate Appearance” value is recorded as “Yes” and the microsomal CLint at 1 µM was found to be 53.2 µL/min/mg.

Turning to `CCCN1Cc2[nH]c(-c3n[nH]c4cc(-c5cc(F)c(O)cc5CC)ccc34)nc2C[C@H]1C(=O)N1CC(N(C)C)C1` [Compound C-5, (S)-(3-(dimethylamino)azetidin-1-yl)(2-(6-(2-ethyl-5-fluoro-4-hydroxyphenyl)-1H-indazol-3-yl)-5-propyl-4,5,6,7-tetrahydro-3H-imidazo[4,5-c]pyridin-6-yl)methanone], the “JAK1 pKi” value in data set [6] is listed as 10.1. Further, the “JAK2 pKi” value in data set [1] came out at 10.8. In data set [2], the “JAK3 pKi” value came to 10.0. In addition, the “Tyk2 pKi” value in data set [3] worked out at 9.4. In addition, in data set [4], the IC50 was 2 nM. Further, in data set [5], the “Compound Remaining at 60 min (%)” value turned out to be 5%, the “Sulfate Appearance” value is on record as “Yes” and the microsomal CLint at 1 µM is 50.5 µL/min/mg.

Values taken from patent publication US10947229B2, “Dimethyl amino azetidine amides as JAK inhibitors” (THERAVANCE BIOPHARMA R&D IP, LLC, priority 2018, dated 2021).
